Data reported in PMC6255212, “Coupled molecular dynamics mediate long- and short-range epistasis between mutations that affect stability and aggregation kinetics” (Proceedings of the National Academy of Sciences of the …, 2018).

Molecular target: T1, Escherichia coli transketolase (TK) (Escherichia coli, UniProt P27302)
T1 construct: gene tktA; homodimer of 70- to 74-kDa monomers; holo enzyme with ThDP and Mg2+
Assay: steady-state enzyme kinetics
Format: biochemical
Settings: 50 mM Li-HPA (lithium beta-hydroxypyruvate, saturating), 4-80 mM glycolaldehyde

T1 sequence (P27302 2-663): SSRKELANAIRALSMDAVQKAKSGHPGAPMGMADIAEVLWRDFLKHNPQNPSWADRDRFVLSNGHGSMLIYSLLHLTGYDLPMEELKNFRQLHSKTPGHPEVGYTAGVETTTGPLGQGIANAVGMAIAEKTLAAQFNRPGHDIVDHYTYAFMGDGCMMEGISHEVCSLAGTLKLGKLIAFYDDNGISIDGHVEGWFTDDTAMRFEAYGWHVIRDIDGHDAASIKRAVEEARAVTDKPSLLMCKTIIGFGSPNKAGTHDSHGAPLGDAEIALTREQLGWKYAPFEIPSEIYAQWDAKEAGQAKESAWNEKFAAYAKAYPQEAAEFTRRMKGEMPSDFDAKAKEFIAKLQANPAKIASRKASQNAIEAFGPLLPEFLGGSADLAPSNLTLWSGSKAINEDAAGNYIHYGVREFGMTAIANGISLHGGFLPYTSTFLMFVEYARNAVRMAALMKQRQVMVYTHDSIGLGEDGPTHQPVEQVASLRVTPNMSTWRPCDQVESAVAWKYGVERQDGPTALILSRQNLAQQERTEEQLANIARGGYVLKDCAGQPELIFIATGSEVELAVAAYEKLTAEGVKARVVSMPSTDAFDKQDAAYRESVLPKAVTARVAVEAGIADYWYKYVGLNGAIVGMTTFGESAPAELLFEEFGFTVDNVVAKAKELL

Km: 20.3 mM
Compound: O=CCO [glycolaldehyde]
